Results on eleven compounds are retold here after US5792765A, “Substituted oxazolidinones” (Bayer Aktiengesellschaft, priority 1996, dated 1998).

What all share (assay type): cell-based
In test [1] the test system is Staph. 133. In words: MIC by serial dilution on Iso-Sensitest Agar. The conditions noted are these: 37° C., about 20 hours. On the procedure: (§1) The minimum inhibitory concentrations (MIC) were determined by serial dilution methods on Iso-Sensitest Agar (Oxoid). For each test substance, a number of agar plates were prepared which, with an in each case doubled dilution, contained decreasing concentrations of the active compound. The agar plates were inoculated with the multipoint inoculator (Denley). For inoculation, overnight cultures of the caustive organisms were used which had previously been diluted such that each inoculation point contained about 10^4 colony-forming particles. The inoculated agar plates were incubated at 37° C., and the microorganism growth was read off after about 20 hours. The MIC value (μg/ml) indicates the lowest active compound concentration at which no growth could be detected using the naked eye.

Test [2] has as its system Staph. 48N. Nature of the test: MIC by serial dilution on Iso-Sensitest Agar. The conditions noted are these: 37° C., about 20 hours. On the procedure:
as §1

In test [3] the test system is Staph. 9TV. In words: MIC by serial dilution on Iso-Sensitest Agar. The conditions noted are these: 37° C., about 20 hours. On the procedure: as §1
Test [4] deals with Psdm. Bonn. Nature of the test: MIC by serial dilution on Iso-Sensitest Agar. On the procedure: as §1
Test [5] has as its system Klebs. 57 USA. Nature of the test: MIC by serial dilution on Iso-Sensitest Agar. On the procedure: as §1
Test [6] has as its system Staph. 25701. Nature of the test: MIC by serial dilution on Iso-Sensitest Agar. The conditions noted are these: 37° C., about 20 hours. Here is the method: as §1
Test [7] has as its system E. coli Neumann. In words: MIC by serial dilution on Iso-Sensitest Agar. As to conditions: Escherichia coli. Here is the method:
as §1

The subject of test [8] is Mycobacterium smegmatis DSM 43061. In words: MIC by broth microdilution, rapidly growing mycobacteria. The conditions noted are these: Mycolicibacterium smegmatis, DSM43061; strain DSM 43061; inoculum 2.20E + 04 /ml; 37° C., 2-4 days. On the procedure: (§2) For rapidly growing mycobacteria the MIC determination was carried out following the broth microdilution method described by Swenson [cf. J. M. Swenson, C. Thomberry, U. A. Silcox, Rapidly growing mycobacteria. Testing of susceptibility to 34 antimicrobial agents by broth microdilution. Antimicrobial Agents and Chemotherapy Vol. 22, 186-192 (1982)]. A deviation from this was the brain-heart extract medium treated with 0.1% by volume of Tween 80.
(§3) The mycobacterial strains used were obtained from the DSM (German Collection of Microorganisms, Brunswick). They were incubated at 37° C. in a humid chamber.
(§4) The MIC values were read off after 2-4 days when the preparation-free controls had become turbid due to growth.
In general terms: Broth dilution looks for growth in wells or tubes with falling amounts of substance.

Test [9] deals with Mycoplasma pneumoniae strain PI 1428. Nature of the test: MIC determination with Mycoplasma pneumoniae, serial microdilution. The conditions noted are these: PI1428, PPLO medium, anaerobic, 37° C., Alamar Blue. On the procedure:
MIC determination with Mycoplasma pneumoniae
Mycoplasma pneumoniae strain PI 1428 was cultured under anaerobic conditions in PPLO medium, to which 1% glucose, 2.5% yeast extract, 20% horse serum (donor horse serum) and 0.002% Phenol Red were added. MIC determinations were carried out following the serial microdilution method in liquid medium described by ter Laak and coworkers (E. A. ter Laak, A. Pijpers, J. H. Noordergraaf, E. Schoevers, J. H. M. Verheijden: Comparison of Methods for in vitro Testing of Susceptibility of Porcine Mycoplasma Species to Antimicrobial Agents; Antimicrobial Agents and Chemotherapy, Vol. 35, 228-233 (1991)). At the time of the start of the colour change of the medium of the preparation-free control from red to yellow, 10% by volume of Alamar Blue was added. The incubation at 37° C. was continued for about 10 hours and the MIC defined as the value at which the medium having the smallest preparation concentration remained unchanged blue.

Test [10] relates to Mycobacterium smegmatis DSM 43078. Nature of the test: MIC by broth microdilution, rapidly growing mycobacteria. The conditions noted are these: Mycolicibacterium smegmatis, DSM43078; strain DSM 43078; inoculum 4.20E + 04 /ml; 37° C., 2-4 days. Here is the method:
as §2, §3, §4

[11] abbreviates: Psdm. Bonn, 37° C., about 20 hours, read-out: MIC.
The mark [12] stands for this setting: Klebs. 57 USA, 37° C., about 20 hours, read-out: MIC.
Where [13] appears, read: E. coli Neumann, 37° C., about 20 hours, read-out: MIC.

Converted amounts (≈) assume the structure as drawn. Read-outs that look alike come from different tables or passages of the source.

As to `CCC(=S)NC[C@H]1CN(c2ccc3ccsc3c2)C(=O)O1` [Example 11], the MIC was 0.5 µg/mL (≈ 1.56 µM) in test [1]; 0.5 µg/mL (≈ 1.56 µM) in test [2]; 0.25 µg/mL (≈ 0.78 µM) in [3]; > 64 µg/mL in [4] (20 h); > 64 µg/mL in test [5] (20 h); 0.25 µg/mL (≈ 0.78 µM) in [6]. Besides, the MIC in [7] (20 h) is > 64 µg/mL.

For `CNC(=S)NC[C@H]1CN(c2ccc(-c3ccncc3)s2)C(=O)O1` [Example 12], the MIC was 8 µg/mL in test [8]; 2 µg/mL (≈ 5.74 µM) in test [9]; 1 µg/mL (≈ 2.87 µM) in test [2]; 0.5 µg/mL (≈ 1.43 µM) in test [3]; > 64 µg/mL in [4] (setting [11]); > 64 µg/mL in test [5] (setting [12]). Besides, the MIC in [6] is 1 µg/mL (≈ 2.87 µM); in test [7] (setting [13]), > 64 µg/mL.

With `CC(=S)NC[C@H]1CN(c2ccc(-c3ccncc3)s2)C(=O)O1` [Example 13], the MIC in [8] is 2 µg/mL; in [10] it was 1 µg/mL; in test [9] it was 2 µg/mL (≈ 6 µM); in [1], 0.25 µg/mL (≈ 0.75 µM); in test [3], ≤ 0.125 µg/mL; in [4] (setting [11]), > 64 µg/mL. In addition, the MIC was > 64 µg/mL in [5] (setting [12]), 0.25 µg/mL (≈ 0.75 µM) in [6] and > 64 µg/mL in test [7] (setting [13]).

As for `CNC(=S)NC[C@H]1CN(c2ccc(-c3cccnc3)s2)C(=O)O1` [Example 14], the MIC stood at 8 µg/mL in [8]; 4 µg/mL in [10]; 8 µg/mL (≈ 23 µM) in [9]; 1 µg/mL (≈ 2.87 µM) in [1]; 1 µg/mL (≈ 2.87 µM) in [2]; 0.5 µg/mL (≈ 1.43 µM) in test [3]. The MIC was > 64 µg/mL in [4] (setting [11]), > 64 µg/mL in test [5] (setting [12]), 1 µg/mL (≈ 2.87 µM) in [6] and > 64 µg/mL in [7] (setting [13]).

As for `CC(=S)NC[C@H]1CN(c2ccc(-c3cccnc3)s2)C(=O)O1` [Example 15], the MIC was 1 µg/mL in [8]; 0.5 µg/mL in test [10]; 0.25 µg/mL (≈ 0.75 µM) in test [1]; 0.5 µg/mL (≈ 1.5 µM) in test [2]; ≤ 0.125 µg/mL in test [3]; > 64 µg/mL in test [4] (setting [11]). Further, the MIC in test [5] (setting [12]) was > 64 µg/mL; in [6] it was 0.25 µg/mL (≈ 0.75 µM); in test [7] (setting [13]), > 64 µg/mL.

With `CNC(=S)NC[C@H]1CN(c2ccc3c(c2)sc(=O)n3C)C(=O)O1` [Example 20], the MIC in test [8] was 0.25 µg/mL; in [10], 0.25 µg/mL; in test [1] it was 0.25 µg/mL (≈ 0.709 µM); in [2], 0.25 µg/mL (≈ 0.709 µM); in test [3] it was ≤ 0.125 µg/mL; in test [4] (setting [11]), > 64 µg/mL. Moreover, the MIC in test [5] (setting [12]) is > 64 µg/mL; in test [6] it was 0.25 µg/mL (≈ 0.709 µM); in [7] (setting [13]), 64 µg/mL (≈ 182 µM).

Turning to `CNC(=S)NC[C@H]1CN(c2ccc3nc(SC)sc3c2)C(=O)O1` [Example 23], the MIC was 4 µg/mL (≈ 10.9 µM) in [9]; 0.25 µg/mL (≈ 0.678 µM) in test [1]; 0.5 µg/mL (≈ 1.36 µM) in [2]; 0.25 µg/mL (≈ 0.678 µM) in [3]; > 64 µg/mL in [4] (setting [11]); > 64 µg/mL in test [5] (setting [12]). In addition, the MIC in test [6] is 0.5 µg/mL (≈ 1.36 µM); in test [7] (setting [13]) it was > 64 µg/mL.

Take `CSc1nc2ccc(N3C[C@H](CNC(C)=S)OC3=O)cc2s1` [Example 26]: the MIC is < 0.125 µg/mL in test [1]; 0.25 µg/mL (≈ 0.707 µM) in test [2]; ≤ 0.125 µg/mL in test [3]; > 64 µg/mL in test [4] (setting [11]); > 64 µg/mL in test [5] (setting [12]); 0.25 µg/mL (≈ 0.707 µM) in test [6]. Further, the MIC in [7] (setting [13]) is > 64 µg/mL.

Consider `CC(=S)NC[C@H]1CN(c2ccc3c(c2)sc(=O)n3C)C(=O)O1` [Example 42], for which the MIC in [1] is < 0.125 µg/mL; in test [2] it was > 0.125 µg/mL; in [3] it was ≤ 0.125 µg/mL; in [4] (setting [11]), > 64 µg/mL; in [5] (setting [12]) it was 64 µg/mL (≈ 190 µM); in [6], > 0.125 µg/mL. The MIC in test [7] (setting [13]) amounted to 64 µg/mL (≈ 190 µM).

`CC(=S)NC[C@H]1CN(c2cc3ccc(Cl)cc3s2)C(=O)O1` [Example 43]: the MIC in test [1] is 0.5 µg/mL (≈ 1.47 µM); in test [2], 0.5 µg/mL (≈ 1.47 µM); in test [3], 0.5 µg/mL (≈ 1.47 µM); in test [4] (setting [11]), > 64 µg/mL; in test [5] (setting [12]) it was > 64 µg/mL; in test [6] it was 0.5 µg/mL (≈ 1.47 µM). Also, the MIC in test [7] (setting [13]) was > 64 µg/mL.

As for `NNC(=O)c1ccncc1` [Isoniazide, reference compound], the figures for the MIC in test [8] and in test [10] were 4 µg/mL and 2 µg/mL, respectively.

As usually defined, the MIC is the least concentration at which growth counts as inhibited.
